Data from PubChem BioAssay AID2060897 (Molecular Pharmacology Branch, DTP, NCI, 2025).

Tested on: 966289-007-R4-J1-PDC complex spheroid viability
Assay: Anticancer human tumor 966289-007-R4-J1-PDC patient-derived pancreatic adenocarcinoma cell line growth inhibition [RAS]
Details: for viability, T/C: stronger effect = lower value; active = viability on the fitted dose curve at most 10% of control; inactive = the rest
Excerpt: RAS pathway inhibitors in Combinations in Complex Spheroids
A high-throughput screen of multi-cell type tumor spheroids was designed to identify active combinations of RAS pathway inhibitors and targeted small molecules. Complex spheroids include a stromal component modeled by human endothelial cells (HUVEC) and fibroblasts modeled by human mesenchymal stem cells (MSCs). The concentration ranges selected for each drug and investigational agent were based upon clinically achievable concentrations if the clinical Cmax of the agent was known.
Compounds. The drugs and investigational agents: abemaciclib (NSC768073), cobimetinib (NSC768068), divarasib (GDC6063, NSC841802), docetaxel (NSC628503), GDC-1971 (RLY-1971, NSC841576), gemcitabine (NSC613327), inavolisib (NSC800729), ipatasertib (NSC767898), KB-0742 (NSC834161), MRTX-1133 (NSC836407), osimertinib (NSC779217), RMC-4630 (NSC839698), RMC-6236 (NSC851965), RMC-6291 (NSC852671), Ro-3306 (NSC812927), sapanisertib (NSC764658), SN-38 (NSC673596), staurosporine (NSC755774), SY5609 (NSC837396), and tovorafenib (DAY101, NSC766906), were obtained from the National Cancer Institute (NCI) Developmental Therapeutics Program Chemical Repository. The FDA-approved anticancer drug set is available from the NCI Developmental Therapeutics Program. […] The stock solutions were prepared in dimethyl sulfoxide (DMSO, Sigma-Aldrich, St. Louis, MO, cat. D2650) at 800-fold the tested concentration and stored at -70 degrees C prior to their use. All drugs and investigational agents were tested over a range starting from a high concentration at or near the clinical Cmax and decreasing in half-log increments. If the clinical Cmax for an agent had not been determined, the highest concentration tested was 10 microM.
Cell Culture. All cells were maintained in an incubator at 37 degrees C and 5% CO2 with 95% humidity. The PDC lines were cultured according to standard operating procedures established by the NCI PDMR. All PDCs were thawed and cultured in Matrigel-coated flasks prepared with a working solution of 1X Ham's F-12 nutrient mix, without supplementation (Invitrogen, Waltham, MA, cat. 11765054), 100 U/mL penicillin-streptomycin (Invitrogen, cat. 15140122), and 2.5% Matrigel (Corning Inc., Corning, NY, cat. 354248) for the first three passages. The 362531-283-R-J2-PDC and 782815-120-R-J1-PDC lines were cultured in 6C/Colon 1B media, which includes advanced DMEM/F-12 (Thermo Fisher Scientific, cat. 12634028), 10 mM HEPES (Thermo Fisher Scientific, cat. 15630080), 1X GlutaMAX supplement (Thermo Fisher Scientific, cat. 35050061), 0.1 mg/mL primocin (InvivoGen, San Diego, CA, cat. ant-pm-2), 10% defined fetal bovine serum, heat inactivated (HyClone Laboratories Inc., Logan, UT, cat. SH30070.03HI), 50% L-WRN conditioned media (ATCC, cat. CRL-3276), 1.25 mM N-Acetyl-L-cysteine (Sigma-Aldrich, cat. A9165), 10 mM nicotinamide (Sigma-Aldrich, cat. N0636), 1X B-27 supplement (Thermo Fisher Scientific, cat. 17504044), 1X N-2 supplement (Thermo Fisher Scientific, cat. 17502048), 50 ng/mL human EGF (Thermo Fisher Scientific, cat. PHG0311), and 10 microM Y-27632 dihydrochloride (Tocris Bioscience, cat. 1254). The K12877-001-R-J1-PDC line was cultured in 6I media, which includes all 6C/Colon 1B media plus 10 ng/mL human FGF-10 (PeproTech, cat. 100-26), 1 ng/mL human FGF-2 (PeproTech, cat. 100-18B), 1 µM prostaglandin E2 (Tocris Bioscience, cat. 2296), […] hydrocortisone (Sigma-Aldrich, cat. H4001), and […] bovine insulin (Sigma-Aldrich, cat. I6634). The K86415-001-R-J1-PDC line was cultured in 6D media, which includes all 6C/Colon 1B media components minus the L-WRN conditioned media. The 485176-168-R4-J1-PDC was cultured in PANC media, which includes all 6C/Colon 1B media plus 100 ng/mL human FGF-10 (PeproTech, cat. 100-26), 500 nM SB-431542 (Selleckchem, cat. S1067), and 10 nM gastrin (Tocris Bioscience, cat. 3006). […]

[1] = curve of first compound, second compound 0.0316 µM
[2] = curve of first compound, second compound 0.1 µM
[3] = curve of first compound, second compound 0.316 µM
[4] = curve of first compound, second compound 1 µM
[5] = second compound 0.0316 µM, first compound 0.0316 µM
[6] = second compound 0.0316 µM, first compound 0.1 µM
[7] = second compound 0.0316 µM, first compound 0.316 µM
[8] = second compound 0.0316 µM, first compound 1 µM
[9] = second compound 0.1 µM, first compound 0.0316 µM
[10] = second compound 0.1 µM, first compound 0.1 µM
[11] = second compound 0.1 µM, first compound 0.316 µM
[12] = second compound 0.1 µM, first compound 1 µM
[13] = second compound 0.316 µM, first compound 0.0316 µM
[14] = second compound 0.316 µM, first compound 0.1 µM
[15] = second compound 0.316 µM, first compound 0.316 µM
[16] = second compound 0.316 µM, first compound 1 µM
[17] = second compound 1 µM, first compound 0.0316 µM
[18] = second compound 1 µM, first compound 0.1 µM
[19] = second compound 1 µM, first compound 0.316 µM
[20] = second compound 1 µM, first compound 1 µM
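Note: spheroids exposed to agents for one week before readout.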
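Throughout, for viability, T/C: percent viability relative to DMSO vehicle control wells as 100%.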

CC1(O)CCCC1n1c(=O)c(C(F)F)cc2cnc(NC3CCN(S(C)(=O)=O)CC3)nc21 (stereo unspecified) + C#Cc1c(F)ccc2cc(O)cc(-c3ncc4c(N5CC6CCC(C5)N6)nc(OCC56CCCN5CC(F)C6)nc4c3F)c12
221 nM: IC50 (curve of first compound, second compound 3.16 µM)
142 nM: IC50 [1]
232 nM: IC50 [3]
220 nM: IC50 [4]
115 nM: IC50 (curve of first compound, second compound 10 µM)
181 nM: IC50 [2]
inactive: viability, T/C [5] 138% | viability, T/C [6] 57% | viability, T/C [7] 28.4% | viability, T/C [8] 33.5% | viability, T/C (second compound 0.0316 µM, first compound 3.16 µM) 32.1% | viability, T/C (second compound 0.0316 µM, first compound 10 µM) 5.74% | viability, T/C [9] 124% | viability, T/C [10] 70.9% | viability, T/C [11] 26.7% | viability, T/C [12] 33.5% | viability, T/C (second compound 0.1 µM, first compound 3.16 µM) 27.7% | viability, T/C (second compound 0.1 µM, first compound 10 µM) 5.83% | viability, T/C [13] 128% | viability, T/C [14] 71.8% | viability, T/C [15] 33.9% | viability, T/C [16] 35.5% | viability, T/C (second compound 0.316 µM, first compound 3.16 µM) 31.4% | viability, T/C (second compound 0.316 µM, first compound 10 µM) 5.81% | viability, T/C [17] 116% | viability, T/C [18] 72.4% | viability, T/C [19] 30.1% | viability, T/C [20] 33% | viability, T/C (second compound 1 µM, first compound 3.16 µM) 33.2% | viability, T/C (second compound 1 µM, first compound 10 µM) 5.07% | viability, T/C (second compound 3.16 µM, first compound 0.0316 µM) 128% | viability, T/C (second compound 3.16 µM, first compound 0.1 µM) 73.5% | viability, T/C (second compound 3.16 µM, first compound 0.316 µM) 30.6% | viability, T/C (second compound 3.16 µM, first compound 1 µM) 32.5% | viability, T/C (second compound 3.16 µM, first compound 3.16 µM) 33.3% | viability, T/C (second compound 3.16 µM, first compound 10 µM) 5.29% | viability, T/C (second compound 10 µM, first compound 0.0316 µM) 106% | viability, T/C (second compound 10 µM, first compound 0.1 µM) 47.8% | viability, T/C (second compound 10 µM, first compound 0.316 µM) 33% | viability, T/C (second compound 10 µM, first compound 1 µM) 30.2% | viability, T/C (second compound 10 µM, first compound 3.16 µM) 38.3% | viability, T/C (second compound 10 µM, first compound 10 µM) 0.93%

CCn1c(-c2cccnc2C(C)OC)c2c3cc(ccc31)N1CCOC(CC(NC(=O)C(C(C)C)N(C)C(=O)C3(F)CCN(C(=O)C#CC(C)(C)N(C)C)CC3)C(=O)N3CCCC(N3)C(=O)OCC(C)(C)C2)C1 (stereo unspecified)
inactive: viability, T/C (compound 0.0949 µM) 83.6% [middle of 8 runs]
> 300 nM: IC50 (compound alone, run of 05/20/2024)

Nc1ccn(C2OC(CO)C(O)C2(F)F)c(=O)n1 (stereo unspecified) + C=CC(=O)N1CCN(c2nc(OCC3CCCN3C)nc3c(F)c(-c4nc(N)cc(C)c4C(F)(F)F)c(Cl)cc23)C(C)C1
6.58 nM: IC50 [2]
6.83 nM: IC50 [4]
6.88 nM: IC50 [1]
8.14 nM: IC50 (curve of first compound, second compound 0.01 µM)
6.55 nM: IC50 [3]
inactive: viability, T/C (second compound 0.00316 µM, first compound 0.00316 µM) 108% | viability, T/C (second compound 0.00316 µM, first compound 0.01 µM) 22.2% | viability, T/C (second compound 0.01 µM, first compound 0.00316 µM) 113% | viability, T/C (second compound 0.01 µM, first compound 0.01 µM) 36.4% | viability, T/C (second compound 0.0316 µM, first compound 0.00316 µM) 100% | viability, T/C (second compound 0.0316 µM, first compound 0.01 µM) 25.8% | viability, T/C (second compound 0.1 µM, first compound 0.00316 µM) 89.6% | viability, T/C (second compound 0.1 µM, first compound 0.01 µM) 27.3% | viability, T/C (second compound 0.316 µM, first compound 0.00316 µM) 93.6% | viability, T/C (second compound 0.316 µM, first compound 0.01 µM) 24.8% | viability, T/C (second compound 1 µM, first compound 0.00316 µM) 93.5% | viability, T/C (second compound 1 µM, first compound 0.01 µM) 28.4%
active: viability, T/C (second compound 0.00316 µM, first compound 0.0316 µM) 1.32% | viability, T/C (second compound 0.00316 µM, first compound 0.1 µM) 1.25% | viability, T/C (second compound 0.00316 µM, first compound 0.316 µM) 1.36% | viability, T/C (second compound 0.00316 µM, first compound 1 µM) 1.34% | viability, T/C (second compound 0.01 µM, first compound 0.0316 µM) 1.5% | viability, T/C (second compound 0.01 µM, first compound 0.1 µM) 1.37% | viability, T/C (second compound 0.01 µM, first compound 0.316 µM) 1.44% | viability, T/C (second compound 0.01 µM, first compound 1 µM) 1.42% | viability, T/C [5] 1.29% | viability, T/C [6] 1.37% | viability, T/C [7] 1.47% | viability, T/C [8] 1.19% | viability, T/C [9] 1.5% | viability, T/C [10] 1.39% | viability, T/C [11] 1.15% | viability, T/C [12] 1.1% | viability, T/C [13] 1.51% | viability, T/C [14] 1.29% | viability, T/C [15] 1.52% | viability, T/C [16] 1.25% | viability, T/C [17] 1.78% | viability, T/C [18] 1.63% | viability, T/C [19] 1.74% | viability, T/C [20] 1.61%
6.89 nM: IC50 (curve of first compound, second compound 0.00316 µM)
